Measured values: patent publication US20230263803A1, “METHODS OF PREVENTING OR TREATING COVID-19 AND RELATED VIRAL DISEASES OR DISORDERS” (KINARUS AG, priority 2020, published 2023)

Assays:
[1] = system: SARS-CoV-2PR1; assay: microbe, parasite or virus in culture; format: cell-based; details: Vero B4 cells, 72 hrs, qRT-PCR
[2] = system: Vero B4 cells; details: 72 hrs

Structure (SMILES)	inhibition of viral shedding ([1]; at the highest concentrations) [%]	inhibition at 0.1 µM ([1]; Severe acute respiratory syndrome coronavirus 2, lowest concentration tested (100 nM), read-out: inhibition of shedding of new SARS-CoV-2 viruses into culture supernatants) [%]	cellular toxicity as determined by WST assay [2]
CCc1ccc(CCOc2ccc(CC3SC(=O)NC3=O)cc2)nc1 (stereo not drawn) [Pioglitazone]	> 90		
Cn1c(=O)c(Oc2ccc(F)cc2F)cc2cnc(NC(CCO)CCO)nc21 [Pamapimod, 6-(2,4-Difluorophenoxy)-2-[3-hydroxy-1-(2-hydroxyethyl)-propylamino]-8-methyl-8H-pyrido[2,3-d]pyrimidin-7-one]		80	no cellular toxicity
